SMILES strings stand for the structures. Structures can show the parent of a compound that is named as a salt. Where only a bound is given, the exact number is not on record here.

In this experiment the target is T1, Recombinant human HSD17B13 enzyme (Homo sapiens, UniProt Q7Z5P4).
T1 sequence (Q7Z5P4 20-300): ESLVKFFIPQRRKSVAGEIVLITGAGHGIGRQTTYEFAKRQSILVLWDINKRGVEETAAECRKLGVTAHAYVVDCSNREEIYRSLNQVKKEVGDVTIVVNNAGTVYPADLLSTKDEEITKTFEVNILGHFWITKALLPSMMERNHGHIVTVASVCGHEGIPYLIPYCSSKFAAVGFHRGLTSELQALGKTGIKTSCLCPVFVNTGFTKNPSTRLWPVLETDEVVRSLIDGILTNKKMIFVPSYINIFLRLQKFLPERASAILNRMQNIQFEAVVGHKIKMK
Put plainly: HSD17b13 NAD(P)H-Glo biochemical assay. Particulars: 50 μM estradiol, 1 mM NAD+, 37° C. for 3 hours; read-out: HSD17β13 IC50. The procedure, abridged:
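Enzyme preincubated with inhibitor 20 min at RT in 20 mM Tris pH7.4, 0.002% Tween-20, 0.02% BSA, then reacted 3 h at 37° C with 50 μM estradiol and 1 mM NAD+ (final). NADH formation read by NAD(P)H-Glo luminescence after 1 h at RT.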
Take `Cn1nc(-c2cc(C(F)(F)F)c(F)c(O)c2F)c2cnc(N3CCO[C@@H](Cc4ccc(C(N)=O)cc4)C3)nc21` [Compound 12.04, (S)-4-((4-(3-(2,4-Difluoro-3-hydroxy-5-(trifluoromethyl)phenyl)-1-methyl-1H-pyrazolo[3,4-d]pyrimidin-6-yl)morpholin-2-yl)methyl)benzamide]: the IC50 – broadly, the concentration that inhibits the measured activity by half – was no more than 100 nM.

For the molecule `Cn1nc(-c2cc(C(F)(F)F)c(F)c(O)c2F)c2cnc(N3CCO[C@@H](Cc4cccc(C(N)=O)c4)C3)nc21` [Compound 12.05, (S)-3-((4-(3-(2,4-Difluoro-3-hydroxy-5-(trifluoromethyl)phenyl)-1-methyl-1H-pyrazolo[3,4-d]pyrimidin-6-yl)morpholin-2-yl)methyl)benzamide], the half-maximal inhibitory concentration (IC50) is no more than 100 nM.

Regarding `Cn1nc(-c2cc(C(F)(F)F)c(F)c(O)c2F)c2cnc(N3CCO[C@@H](Cc4cccc(S(N)(=O)=O)c4)C3)nc21` [Compound 12.06, (S)-3-((4-(3-(2,4-Difluoro-3-hydroxy-5-(trifluoromethyl)phenyl)-1-methyl-1H-pyrazolo[3,4-d]pyrimidin-6-yl)morpholin-2-yl)methyl)benzenesulfonamide], the IC50 is no more than 100 nM.

`Cc1cccc(C[C@H]2CN(c3ncc4c(-c5cc(C(F)(F)F)c(F)c(O)c5F)nn(C)c4n3)CCO2)c1` [Compound 12.07, (S)-2,6-Difluoro-3-(1-methyl-6-(2-(3-methylbenzyl)morpholin)-1H-pyrazolo[3,4-d]pyrimidin-3-yl)-5-(trifluoromethyl)phenol]: the IC50 was no more than 100 nM.

Consider `Cn1nc(-c2cc(C(F)(F)F)c(F)c(O)c2F)c2cnc(N3CCO[C@@H](Cc4ccc(S(N)(=O)=O)cc4)C3)nc21` [Compound 12.08, (S)-4-((4-(3-(2,4-Difluoro-3-hydroxy-5-(trifluoromethyl)phenyl)-1-methyl-1H-pyrazolo[3,4-d]pyrimidin-6-yl)morpholin-2-y)methyl)benzenesulfonamide], for which the IC50 was no more than 100 nM.

Take `Cc1ccc([C@@H](O)[C@H]2CN(c3ncc4c(-c5cc(C(F)(F)F)c(F)c(O)c5F)nn(C)c4n3)CCO2)cc1` [Compound 13, 2,6-Difluoro-3-(6-((R)-2-((R)-hydroxy(p-tolyl)methyl)morpholino)-1-methyl-1H-pyrazolo[3,4-d]pyrimidin-3-yl)-5-(trifluoromethyl)phenol]: the IC50 is no more than 100 nM.

Take `Cn1nc(-c2cc(C(F)(F)F)c(F)c(O)c2F)c2cnc(C3CCCCN3Cc3ccccc3)nc21` (stereo not shown) [Compound 14, 3-(6-(1-Benzylpiperidin-2-yl)-1-methyl-1H-pyrazolo[3,4-d]pyrimidin-3-yl)-2,6-difluoro-5-(trifluoromethyl)phenol hydrochloride]: the IC50 lay in the range of 100 to 1000 nM.

For `Cn1nc(-c2cc(C(F)(F)F)c(F)c(O)c2F)c2cnc(C3CCCN(Cc4ccccc4)C3)nc21` (stereo not shown) [Compound 14.01, 3-(6-(1-Benzylpiperidin-3-yl)-1-methyl-1H-pyrazolo[3,4-d]pyrimidin-3-yl)-2,6-difluoro-5-(trifluoromethyl)phenol hydrochloride], the IC50 lay in the range of 100 to 1000 nM.

With `Cn1nc(-c2cc(C(F)(F)F)c(F)c(O)c2F)c2cnc(N3CCN(S(C)(=O)=O)CC3CC3CCCCC3)nc21` (stereo not shown) [Compound 15, 3-(6-(2-(Cyclohexylmethyl)-4-(methylsulfonyl)piperazin-1-yl)-1-methyl-1H-pyrazolo[3,4-d]pyrimidin-3-yl)-2,6-difluoro-5-(trifluoromethyl)phenol], the IC50 is no more than 100 nM.

With `Cn1nc(-c2cc(C(F)(F)F)c(F)c(O)c2F)c2cnc(N3CCN(S(C)(=O)=O)C[C@H]3CC3CCCCC3)nc21` [Compound 15.02, (R)-3-(6-(2-(Cyclohexylmethyl)-4-(methylsulfonyl)piperazin-1-yl)-1-methyl-1H-pyrazolo[3,4-d]pyrimidin-3-yl)-2,6-difluoro-5-(trifluoromethyl)phenol], the IC50 was no more than 100 nM.

With `Cn1nc(-c2cc(C(F)(F)F)c(F)c(O)c2F)c2cnc(N3CCOCC3CC3CCCCC3)nc21` (stereo not shown) [Compound 15.03, 3-(6-(3-(Cyclohexylmethyl)morpholino)-1-methyl-1H-pyrazolo[3,4-d]pyrimidin-3-yl)-2,6-difluoro-5-(trifluoromethyl)phenol], the IC50 was no more than 100 nM.

Turning to `Cn1nc(-c2cc(C(F)(F)F)c(F)c(O)c2F)c2cnc(N3CCOC[C@@H]3CC3CCCCC3)nc21` [Compound 15.05, (S)-3-(6-(3-(Cyclohexylmethyl)morpholino)-1-methyl-1H-pyrazolo[3,4-d]pyrimidin-3-yl)-2,6-difluoro-5-(trifluoromethyl)phenol], the IC50 is no more than 100 nM.

For the molecule `Cn1nc(-c2cc(C(F)(F)F)c(F)c(O)c2F)c2cnc(N3CCOCC3Cc3ccccn3)nc21` (stereo not shown) [Compound 15.06, 2,6-Difluoro-3-(1-methyl-6-(3-(pyridin-2-ylmethyl)morpholino)-1H-pyrazolo[3,4-d]pyrimidin-3-yl)-5-(trifluoromethyl)phenol], the IC50 was no more than 100 nM.

As to `Cn1nc(-c2cc(C(F)(F)F)c(F)c(O)c2F)c2cnc(N3CCOCC3Cc3cccnc3)nc21` (stereo not shown) [Compound 15.07, 2,6-Difluoro-3-(1-methyl-6-(3-(pyridin-3-ylmethyl)morpholino)-1H-pyrazolo[3,4-d]pyrimidin-3-yl)-5-(trifluoromethyl)phenol], the IC50 is no more than 100 nM.

For `Cn1nc(-c2cc(C(F)(F)F)c(F)c(O)c2F)c2cnc(N3CCOCC3Cc3ccncc3)nc21` (stereo not shown) [Compound 15.08, 2,6-Difluoro-3-(1-methyl-6-(3-(pyridin-4-ylmethyl)morpholino)-1H-pyrazolo[3,4-d]pyrimidin-3-yl)-5-(trifluoromethyl)phenol], the IC50 is no more than 100 nM.

In the case of `Cn1nc(-c2cc(C(F)(F)F)c(F)c(O)c2F)c2cnc(N3CC(=O)NC[C@H]3Cc3ccccc3)nc21` [Compound 15.09, (R)-5-Benzyl-4-(3-(2,4-difluoro-3-hydroxy-5-(trifluoromethyl)phenyl)-1-methyl-1H-pyrazolo[3,4-d]pyrimidin-6-yl)piperazin-2-one], the IC50 was no more than 100 nM.

Take `Cn1nc(-c2cc(C(F)(F)F)c(F)c(O)c2F)c2cnc(N3CC[C@@H]3Cc3ccccc3)nc21` [Compound 15.11, (S)-3-(6-(2-Benzylazetidin-1-yl)-1-methyl-1H-pyrazolo[3,4-d]pyrimidin-3-yl)-2,6-difluoro-5-(trifluoromethyl)phenol]: the IC50 was no more than 100 nM.

As to `CCn1nc(-c2cc(C(F)(F)F)c(F)c(O)c2F)c2cnc(N3CCOC[C@H]3Cc3ccccc3)nc21` [Compound 15.12, (R)-3-(6-(3-Benzylmorpholino)-1-ethyl-1H-pyrazolo[3,4-d]pyrimidin-3-yl)-2,6-difluoro-5-(trifluoromethyl)phenol], the IC50 is no more than 100 nM.

Consider `Cn1nc(-c2cc(C(F)(F)F)c(F)c(O)c2F)c2cnc(N3CCOC[C@H]3C(C)(C)O)nc21` [Compound 15.13, (S)-2,6-Difluoro-3-(6-(3-(2-hydroxypropan-2-yl)morpholino)-1-methyl-1H-pyrazolo[3,4-d]pyrimidin-3-yl)-5-(trifluoromethyl)phenol], for which the IC50 was no more than 100 nM.

The values are drawn from US20240368127A1, “HSD17B13 INHIBITORS AND USES THEREOF” (FL2022-001, Inc., priority 2021, published 2024).
